Test results from publication PMC9655618 (Cancers, 2022).

How the values were obtained:
T47D cells [1] = assay: Real-time monitoring of 2D cell growth (IncuCyte); format: cell-based; conditions: Homo sapiens, 120 h, complete estrogenic media (10%FBS), 5 days, AUC
[2] = tested on: glucocorticoid receptor (GR)-dependent transcriptional activity, MDA-kb2 cells; assay: GR-mediated transcription, luciferase reporter in MDA-kb2 cells (dexamethasone); conditions: 100 nM Dexamethasone; compounds 1–10 µM
MCF-10A cells = assay: Drug combination assay with 4-OHTAM (MTT); conditions: Homo sapiens, 72 h, read-out: IC50, cell viability inhibition
Method: Cells were seeded at 5000 and 7500 cells, per well, respectively, and cell viability was assessed by MTT assays 72 h after treatment. Briefly, cells were incubated with constant ratio combinations of indicated test compounds by doubling dilutions of the individual drugs over a wide range of concentrations [43]. […] Dose-effect curves of the individual or combined compounds were plotted and assessed by the median effect method of Chou and Talalay [43] using Calcusyn software 2.0 (Biosoft, Cambridge, UK), thus obtaining the combination index (CI) values. CI values less than 1, equal to 1, and greater than 1 indicated synergism, addition, and antagonism, respectively.

[3] = tested on: T47D cancer cell spheroids; assay: Real-time monitoring of 3D tumor spheroid growth; format: cell-based, human; conditions: 8 days
MCF-7 cells = assay: Real-time monitoring of 2D cell growth (IncuCyte); format: cell-based; conditions: Homo sapiens, MCF7, 120 h; complete estrogenic media (10%FBS), 5 days, AUC
Method: To monitor long-term growth, human ER+ BC (T47-D, MCF-7, MCF-7/BUS), ER+ endometrial (Ishiwaka, High Point, NC, USA), or non-malignant breast (MCF-10A) cells were seeded at 3000–6000 cells per well. […] When indicated, cells were estrogen-deprived in a 10DCC-FBS supplemented medium for one week. […] Cytotoxicity was monitored by using YOYO-1 (Invitrogen, Waltham, MA, USA). Cell proliferation and cytotoxicity were monitored by sequential real-time microphotographs in an IncuCyte HD real-time imaging system (Essen BioScience, Hertfordshire, UK) for 5–10 days. The area under the curve (AUC) was then analyzed to know both the kinetics and dose-effect relationships. […] Next, cells were treated with VEH (0.05% DMSO) or test compounds for 5–10 days. Spheroid size and cell cytotoxicity were recorded with the Incucyte SX5 Live-Cell Analysis Instrument (Sartorius AG, Göttingen, Germany). To calculate the spheroid growth area, confluence measurements were taken considering the largest brightfield object area (µm^2). Cytotoxicity was monitored by using YOYO-1 (Essen Bioscience, Hertfordshire, UK).

T47D cells [4] = assay: MTT cell viability assay; format: cell-based, human; conditions: Homo sapiens, T47D, 72 h, 10%FBS growth media
Method: Straightforward, the tetrazolium salt 3-(4,5-methyltiazol-2yl-)-2,5diphenyl-tetrazolium bromide (MTT) (Applichen, Darmstadt, Germany) was added to cells, incubated for 2–4 h at 37 °C, and lysed in 10% SDS. The mitochondrial metabolization of the tetrazolium salt was determined by the analysis of the optical density at 595 nm, measured with the iMark microplate Reader (Bio–Rad, Irvine, CA, USA).

[5] = target: T1, ERα protein in T47D E2-deprived cells (Homo sapiens, UniProt P03372); assay: Immunofluorescence (confocal microscopy); format: cell-based; conditions: 5 µM 24 h, then E2 1 nM 30 min
T1 construct: ERα protein expression were also explored in T47D E2-deprived BC cells; endogenous in cells; host or cells: T47D (steroid-deprived)
Method: T47D cells were seeded with steroid-deprived FBS (10% DCC-FBS) RPMI medium supplemented with L-Glutamine/HEPES/sodium pyruvate/PEST. Then, cells were seeded at 175,000 cells/well in 5% DCC-FBS in 6-well plates containing 22 × 22 mm coverslips (Menzelgläser, vWR, Radnor, PA, USA). […] After this, cells were washed with PBS, fixed in 4% paraformaldehide (PFA; Sigma-Aldrich, St. Louis, MO, USA) for 15 min, blocked-permeabilized in PBS-0.5% BSA-0.1% Triton X-100 (Thermo Scientific, Waltham, MA, USA) for 1 h, and, finally, incubated with mouse ERα (Santa Cruz Biotech, CA, USA) and rabbit β-catenin (C2206 Sigma-Aldrich, St. Louis, MO, USA) primary antibodies in the same blocking solution overnight at 4 °C within a hand-made humid chamber. After three washing with PBS-0.5% BSA-0.1% Triton X-100 (Thermo Scientific, Waltham, MA, USA), cells were incubated with anti-mouse Alexa fluor 488 (Life Technologies, CA, USA) or anti-rabbit Alexa 647 (Life Technologies, Carlsbad, CA, USA) secondary antibodies, containing DAPI (4′,6-diamidino-2-phenylindole; Sigma-Aldrich, St. Louis, MO, USA), for 1 h at room temperature. Finally, slides were mounted with Fluormount-G® (Thermo Fisher Scientific, Waltham, MA, USA), and cells were visualized using a confocal microscope Zeiss LSM 800 (Carl Zeiss AG, Jena, Germany). The fluorescent signal was quantified by using a segmentation method for image analysis.

[6] = tested on: total STAT5 protein level in T47D cells; assay: Immunoblotting; format: cell-based, human; conditions: 24–72 h
Method: Then, they were washed with ice-cold PBS supplemented with 1 mM ortovanadate and lysed with RIPA buffer containing protease and phosphatase inhibitors (Thermo Fisher Scientific, Waltham, MA, USA). Equal protein amounts were analyzed by SDS–PAGE, and transferred to nitrocellulose membranes (Thermo Fisher Scientific, Waltham, MA, USA), blocked with Tris-buffered saline/0.05% Tween 20 (TBS-T) containing 5% blotto (Merck, Darmstadt, Germany) or 5% BSA for total and phosphorylated proteins, respectively. Immunoblotting was carried out with mouse anti-ERα F-10 (Santa Cruz Biotech, Santa Cruz, CA, USA), rabbit total anti-STAT5 (Cell Signaling Technology, Leiden, The Netherlands) or mouse anti-polyubiquitin (EMD Millipore, Burlington, MA, USA). After washing, membranes were incubated with horseradish peroxidase-conjugated secondary antibodies (Bio-Rad) for 1 h at room temperature. The β-actin antibody (Santa Cruz Biotech, CA, USA) was used as the loading control. Finally, protein bands were visualized by using Clarity™ Western ECL Substrate (Bio-Rad) in the ChemiDoc XRS system (Bio-Rad) and were analyzed with Quantity One software (Bio-Rad).

Compound	IC50 (T47D cells [1]) [µM]	effect on DEX-induced luciferase activity [2]	IC50 (MCF-10A cells) [nM]	effect on spheroid growth [3]	IC50 (MCF-7 cells) [nM]	IC50 (T47D cells [4]) [µM]	effect on ERα protein levels by confocal microscopy [5]	effect on total STAT5 protein level [6]
Cc1ccc(C2=CC(O)(c3ccccc3)N(Cc3ccccc3)C2=O)cc1C (stereo not shown) [compound 32, 1-benzyl-3-(3,4-dimethylphenyl)-5-hydroxy-5-phenyl-1H-pyrrol-2(5H)-one]	5.34 ± 2.47	Neither 4-OHTAM nor compounds 32 or 35 displayed cross-activation	350	reduced the growth of T47D cancer cell spheroids	1520 ± 1250	10.6 ± 0.58	showed no effects	this effect was not provoked
O=C1C(c2ccc([N+](=O)[O-])cc2)=CC(O)(c2ccccc2)N1Cc1ccccc1 (stereo not shown) [compound 35, 1-benzyl-5-hydroxy-3-(4-nitrophenyl)-5-phenyl-1H-pyrrol-2(5H)-one]	6.98 ± 1.15	Neither 4-OHTAM nor compounds 32 or 35 displayed cross-activation	> 560	reduced the growth of T47D cancer cell spheroids	4300 ± 770	5.31 ± 0.47	significantly decreased ERα protein levels both in nuclei and cytoplasmic compartments	this effect was not provoked
